Data reported in PubChem BioAssay AID2060609 (Molecular Pharmacology Branch, DTP, NCI, 2025).
Values belong to the molecule of their own block, whether it stands above or below them.

Test system: 855422-203-R-J1-PDC complex spheroids, viability
Assay: Anticancer human tumor 855422-203-R-J1-PDC patient-derived bladder carcinoma cell line growth inhibition [CLK]
Settings: for viability, T/C: stronger effect = lower value
Method in brief: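 Patient-derived tumor cells grown as complex spheroids with HUVEC endothelial cells and mesenchymal stem cells, treated with drug combinations. Concentrations descend in half-log steps from near clinical Cmax, or from 10 microM if Cmax unknown.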

[1] = curve of first compound, second compound 0.0316 µM
[2] = curve of first compound, second compound 0.1 µM
[3] = curve of first compound, second compound 0.316 µM
[4] = curve of first compound, second compound 1 µM
[5] = curve of first compound, second compound 3.16 µM
[6] = curve of first compound, second compound 10 µM
[7] = second compound 0.0316 µM, first compound 0.0316 µM
[8] = second compound 0.0316 µM, first compound 0.1 µM
[9] = second compound 0.0316 µM, first compound 0.316 µM
[10] = second compound 0.0316 µM, first compound 1 µM
[11] = second compound 0.0316 µM, first compound 3.16 µM
[12] = second compound 0.0316 µM, first compound 10 µM
[13] = second compound 0.1 µM, first compound 0.0316 µM
[14] = second compound 0.1 µM, first compound 0.1 µM
[15] = second compound 0.1 µM, first compound 0.316 µM
[16] = second compound 0.1 µM, first compound 1 µM
[17] = second compound 0.1 µM, first compound 3.16 µM
[18] = second compound 0.1 µM, first compound 10 µM
[19] = second compound 0.316 µM, first compound 0.0316 µM
[20] = second compound 0.316 µM, first compound 0.1 µM
[21] = second compound 0.316 µM, first compound 0.316 µM
[22] = second compound 0.316 µM, first compound 1 µM
[23] = second compound 0.316 µM, first compound 3.16 µM
[24] = second compound 0.316 µM, first compound 10 µM
[25] = second compound 1 µM, first compound 0.0316 µM
[26] = second compound 1 µM, first compound 0.1 µM
[27] = second compound 1 µM, first compound 0.316 µM
[28] = second compound 1 µM, first compound 1 µM
[29] = second compound 1 µM, first compound 3.16 µM
[30] = second compound 1 µM, first compound 10 µM
[31] = second compound 3.16 µM, first compound 0.0316 µM
[32] = second compound 3.16 µM, first compound 0.1 µM
[33] = second compound 3.16 µM, first compound 0.316 µM
[34] = second compound 3.16 µM, first compound 1 µM
[35] = second compound 3.16 µM, first compound 3.16 µM
[36] = second compound 3.16 µM, first compound 10 µM
[37] = second compound 10 µM, first compound 0.0316 µM
[38] = second compound 10 µM, first compound 0.1 µM
[39] = second compound 10 µM, first compound 0.316 µM
[40] = second compound 10 µM, first compound 1 µM
[41] = second compound 10 µM, first compound 3.16 µM
[42] = second compound 10 µM, first compound 10 µM
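Also: spheroids exposed to drugs for seven days before readout.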
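For viability, T/C in this document: 100% = DMSO vehicle control wells.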

SMILES: C=CC(=O)Nc1cc(Nc2nccc(-c3cn(C)c4ccccc34)n2)c(OC)cc1N(C)CCN(C)C + CN1CCN(c2cc(C(=O)Nc3cc4cc(-c5cnn(C)c5)ccc4cn3)ccn2)CC1
IC50 [1]: > 0.3 µM
IC50 [2]: > 0.3 µM
IC50 [3]: < 0.000949 µM
IC50 [4]: < 0.000949 µM
IC50 [5]: < 0.000949 µM
IC50 [6]: < 0.000949 µM
viability, T/C (second compound 0.0316 µM, first compound 0.000949 µM): 104%
viability, T/C (second compound 0.0316 µM, first compound 0.003 µM): 88.3%
viability, T/C (second compound 0.0316 µM, first compound 0.00949 µM): 112%
viability, T/C (second compound 0.0316 µM, first compound 0.03 µM): 102%
viability, T/C (second compound 0.0316 µM, first compound 0.0949 µM): 97.6%
viability, T/C (second compound 0.0316 µM, first compound 0.3 µM): 91.4%
viability, T/C (second compound 0.1 µM, first compound 0.000949 µM): 79.1%
viability, T/C (second compound 0.1 µM, first compound 0.003 µM): 80.4%
viability, T/C (second compound 0.1 µM, first compound 0.00949 µM): 85.8%
viability, T/C (second compound 0.1 µM, first compound 0.03 µM): 91.7%
viability, T/C (second compound 0.1 µM, first compound 0.0949 µM): 74.8%
viability, T/C (second compound 0.1 µM, first compound 0.3 µM): 64.5%
viability, T/C (second compound 0.316 µM, first compound 0.000949 µM): 7.04%
viability, T/C (second compound 0.316 µM, first compound 0.003 µM): 9.27%
viability, T/C (second compound 0.316 µM, first compound 0.00949 µM): 8.35%
viability, T/C (second compound 0.316 µM, first compound 0.03 µM): 11.4%
viability, T/C (second compound 0.316 µM, first compound 0.0949 µM): 8.34%
viability, T/C (second compound 0.316 µM, first compound 0.3 µM): 7.28%
viability, T/C (second compound 1 µM, first compound 0.000949 µM): 0.18%
viability, T/C (second compound 1 µM, first compound 0.003 µM): 0.31%
viability, T/C (second compound 1 µM, first compound 0.00949 µM): 0.54%
viability, T/C (second compound 1 µM, first compound 0.03 µM): 0.25%
viability, T/C (second compound 1 µM, first compound 0.0949 µM): 1.14%
viability, T/C (second compound 1 µM, first compound 0.3 µM): 0.46%
viability, T/C (second compound 3.16 µM, first compound 0.000949 µM): 0.7%
viability, T/C (second compound 3.16 µM, first compound 0.003 µM): 0.52%
viability, T/C (second compound 3.16 µM, first compound 0.00949 µM): 0.64%
viability, T/C (second compound 3.16 µM, first compound 0.03 µM): 0.46%
viability, T/C (second compound 3.16 µM, first compound 0.0949 µM): 0.68%
viability, T/C (second compound 3.16 µM, first compound 0.3 µM): 0.93%
viability, T/C (second compound 10 µM, first compound 0.000949 µM): 0.4%
viability, T/C (second compound 10 µM, first compound 0.003 µM): 1.47%
viability, T/C (second compound 10 µM, first compound 0.00949 µM): 0.52%
viability, T/C (second compound 10 µM, first compound 0.03 µM): 0.85%
viability, T/C (second compound 10 µM, first compound 0.0949 µM): 0.58%
viability, T/C (second compound 10 µM, first compound 0.3 µM): 0.28%

IC50 (compound alone, run of 08/01/2023): 142 nM [middle of 11 runs]
SMILES: CNC(=O)c1ccc(Nc2nc(OC3CCCC3)c3c(-c4ccc5nc(C)oc5c4)c[nH]c3n2)c(OC)c1
viability, T/C (compound 0.316 µM): 23.8% [middle of 12 runs]
viability, T/C (compound 1 µM): 22.5% [middle of 12 runs]
viability, T/C (compound 3.16 µM): 21.2% [middle of 12 runs]
viability, T/C (compound 10 µM): 20.1% [middle of 11 runs]

IC50 [1]: > 10 µM
IC50 [2]: 0.392 µM
IC50 [3]: < 0.0316 µM
IC50 [4]: < 0.0316 µM
IC50 [5]: < 0.0316 µM
IC50 [6]: < 0.0316 µM
SMILES: C#Cc1c(F)ccc2cc(O)cc(-c3ncc4c(N5CC6CCC(C5)N6)nc(OCC56CCCN5CC(F)C6)nc4c3F)c12 (stereo not drawn) + CNC(=O)c1ccc(Nc2nc(OC3CCCC3)c3c(-c4ccc5nc(C)oc5c4)c[nH]c3n2)c(OC)c1
viability, T/C [7]: 95.4%
viability, T/C [8]: 111%
viability, T/C [9]: 100%
viability, T/C [10]: 87.2%
viability, T/C [11]: 132%
viability, T/C [12]: 84.9%
viability, T/C [13]: 60.2%
viability, T/C [14]: 51.1%
viability, T/C [15]: 56.7%
viability, T/C [16]: 39.6%
viability, T/C [17]: 32.7%
viability, T/C [18]: 22%
viability, T/C [19]: 21.2%
viability, T/C [20]: 24.9%
viability, T/C [21]: 24.8%
viability, T/C [22]: 22.9%
viability, T/C [23]: 24.3%
viability, T/C [24]: 21.8%
viability, T/C [25]: 19.8%
viability, T/C [26]: 21.5%
viability, T/C [27]: 19.5%
viability, T/C [28]: 22.1%
viability, T/C [29]: 23.2%
viability, T/C [30]: 19.3%
viability, T/C [31]: 20.6%
viability, T/C [32]: 18.1%
viability, T/C [33]: 17.3%
viability, T/C [34]: 22%
viability, T/C [35]: 25.4%
viability, T/C [36]: 13.3%
viability, T/C [37]: 21.8%
viability, T/C [38]: 22.4%
viability, T/C [39]: 24.1%
viability, T/C [40]: 18.9%
viability, T/C [41]: 17.3%
viability, T/C [42]: 14.8%

IC50 [1]: 2.5 µM
IC50 [2]: < 0.0316 µM
IC50 [3]: < 0.0316 µM
IC50 [4]: < 0.0316 µM
IC50 [5]: < 0.0316 µM
IC50 [6]: < 0.0316 µM
SMILES: C=C(F)C(=O)N1CCN(c2nc(OCC3CCCN3C)nc3c2CCN(c2cccc4cccc(Cl)c24)C3)CC1CC#N (stereo not drawn) + CNC(=O)c1ccc(Nc2nc(OC3CCCC3)c3c(-c4ccc5nc(C)oc5c4)c[nH]c3n2)c(OC)c1
viability, T/C [7]: 83.1%
viability, T/C [8]: 88.6%
viability, T/C [9]: 81.8%
viability, T/C [10]: 132%
viability, T/C [11]: 38.1%
viability, T/C [12]: 0.16%
viability, T/C [13]: 24.2%
viability, T/C [14]: 21%
viability, T/C [15]: 23.7%
viability, T/C [16]: 27.5%
viability, T/C [17]: 10.2%
viability, T/C [18]: 0.11%
viability, T/C [19]: 16.6%
viability, T/C [20]: 19.6%
viability, T/C [21]: 19.9%
viability, T/C [22]: 18.7%
viability, T/C [23]: 10.1%
viability, T/C [24]: 0.07%
viability, T/C [25]: 21.5%
viability, T/C [26]: 15.8%
viability, T/C [27]: 19.4%
viability, T/C [28]: 18.6%
viability, T/C [29]: 8.14%
viability, T/C [30]: 0.07%
viability, T/C [31]: 18.5%
viability, T/C [32]: 14.9%
viability, T/C [33]: 14.8%
viability, T/C [34]: 20.5%
viability, T/C [35]: 9.57%
viability, T/C [36]: 1.06%
viability, T/C [37]: 18.1%
viability, T/C [38]: 21.6%
viability, T/C [39]: 21%
viability, T/C [40]: 16.9%
viability, T/C [41]: 7.87%
viability, T/C [42]: 8.64%

IC50 [1]: 5.68 µM
IC50 [2]: 1.03 µM
IC50 [3]: < 0.0316 µM
IC50 [4]: < 0.0316 µM
IC50 [5]: < 0.0316 µM
IC50 [6]: < 0.0316 µM
SMILES: CCCS(=O)(=O)Nc1ccc(F)c(C(=O)c2c[nH]c3ncc(-c4ccc(Cl)cc4)cc23)c1F + CNC(=O)c1ccc(Nc2nc(OC3CCCC3)c3c(-c4ccc5nc(C)oc5c4)c[nH]c3n2)c(OC)c1
viability, T/C [7]: 90.8%
viability, T/C [8]: 79.9%
viability, T/C [9]: 112%
viability, T/C [10]: 92.2%
viability, T/C [11]: 114%
viability, T/C [12]: 3.65%
viability, T/C [13]: 50.6%
viability, T/C [14]: 52.7%
viability, T/C [15]: 48.5%
viability, T/C [16]: 49.6%
viability, T/C [17]: 46%
viability, T/C [18]: 6.89%
viability, T/C [19]: 23.8%
viability, T/C [20]: 23.8%
viability, T/C [21]: 19.8%
viability, T/C [22]: 19.9%
viability, T/C [23]: 21.4%
viability, T/C [24]: 5.35%
viability, T/C [25]: 17.7%
viability, T/C [26]: 20.9%
viability, T/C [27]: 17.9%
viability, T/C [28]: 20.2%
viability, T/C [29]: 16.9%
viability, T/C [30]: 4.43%
viability, T/C [31]: 22.2%
viability, T/C [32]: 14.9%
viability, T/C [33]: 18.7%
viability, T/C [34]: 15.1%
viability, T/C [35]: 19.5%
viability, T/C [36]: 4.41%
viability, T/C [37]: 18.2%
viability, T/C [38]: 19.6%
viability, T/C [39]: 20%
viability, T/C [40]: 17.6%
viability, T/C [41]: 15.1%
viability, T/C [42]: 5.26%
